Experimental data as given in US20230331827A1, “POTASSIUM CHANNEL INHIBITORS” (priority 2017, published 2023).

System: trypsin
Experiment: Phage TRF binding assay on immobilised biotinylated trypsin (monoclonal phage ELISA)
Settings: presented on phage as direct N-terminus gene-III fusion
Experimental: Phage display technology facilitates isolation of binders to any given target from large combinatorial repertoires based on proteins and peptides that can be presented on the surface of filamentous phage^105. In order to isolate functional knottin-antibody fusions from the KnotBody libraries multiple rounds of phage display selections on trypsin (cognate antigen for the EETI-II donor) were carried out. Phage particles were prepared by rescuing KnotBody libraries using trypsin cleavable helper phage ^102,106Two rounds of phage display selections were performed on 10 µg/ml biotinylated trypsin immobilised on Streptavidin (for Round-1) or Neutravidin (for round-2) coated Maxisorp™ immunotubes (Thermo Scientific, Cat No. 444202). In both rounds of selection, phage libraries were pre-incubated with streptavidin coated paramagnetic beads (Thermo Fisher Scientific, Cat. No. 11205D). […] Polyclonal phage preparations from round-2 selection outputs were analysed for trypsin binding using a time resolved fluorescence (TRF) binding assay. In this assay, polyclonal phage binding to biotinylated trypsin immobilised on neutravidin (Thermo Fisher Scientific, Cat. No 31000) coated Maxisorp™ plates (Thermo Scientific, Cat. No. 437111) was detected using a mouse anti-M13 antibody (GE Healthcare, Cat. No. 27-9420-01) followed by europium conjugated anti-mouse antibody (Perkin Elmer, Cat. No. AD0124). […]

Substance: Ecballium elaterium trypsin inhibitor-II [EETI-II, reference compound]
- binding to trypsin: no detectable binding to trypsin
